Target: T1, Dimer of Gag-Pol polyprotein [489-587] (Human immunodeficiency virus 1, UniProt P12497)
T1 construct: 489-587
Assay: Protease Inhibition Assay
Details: not given
From the text: In the presence of HIV-l protease, the substrate is rapidly cleaved into two parts. The biotinylated amino terminal fragment binds to the avidin Pandex beads while the FITC-containing carboxy1 terminal fragment is removed through the membrane.

Row | Compound | IC50
1 | CC(C)[C@@H]1[C@H](OC(=O)N[C@@H](Cc2ccccc2)[C@H](O)CN2C[C@H]3CCCC[C@H]3CC2C(=O)NC(C)(C)C)CCS1(=O)=O (stereo partly drawn) [(2R,3R)-1,1-dioxo-2-(propan-2-yl)--thiolan-3-yl N-[(2S,3R)-4-[(4aS,8aS)-3-(tert-butylcarbamoyl)-decahydroisoquinolin-2-yl]-3-hydroxy-1-phenylbutan-2-yl]carbamate] | 4.3 nM
2 | CC(C)[C@H]1SCC[C@H]1OC(=O)N[C@@H](Cc1ccccc1)[C@H](O)CN1C[C@H]2CCS[C@H]2CC1C(=O)NC(C)(C)C (stereo partly drawn) [(2R,3R)-2-(propan-2-yl)thiolan-3-yl N-[(2S,3R)-4-[(3aR,7aS)-6-(tert-butylcarbamoyl)-octahydrothieno[3,2-c]pyridin-5-yl]-3-hydroxy-1-phenylbutan-2-yl]carbamate] | 0.26 nM
3 | CC(C)[C@H]1[C@@H](OC(=O)N[C@@H](CSc2ccccc2)[C@H](O)CN2C[C@H]3CCS[C@H]3CC2C(=O)NC(C)(C)C)CCS1(=O)=O (stereo partly drawn) [(2S,3S)-1,1-dioxo-2-(propan-2-yl)--thiolan-3-yl N-[(2R,3R)-4-[(3aR,7aS)-6-(tert-butylcarbamoyl)-octahydrothieno[3,2-c]pyridin-5-yl]-3-hydroxy-1-(phenylsulfanyl)butan-2-yl]carbamate] | 0.95 nM
4 | CC(C)[C@@H]1SCC[C@@H]1OC(=O)N[C@@H](Cc1ccccc1)[C@H](O)CN1C[C@H]2CCS[C@H]2CC1C(=O)NC(C)(C)C (some centres not stated) [hydroxyethylene isostere] | 2.6 nM
5 | CC(C)[C@@H]1[C@H](OC(=O)N[C@@H](CSc2ccccc2)[C@H](O)CN2C[C@H]3CCS[C@H]3CC2C(=O)NC(C)(C)C)CCS1(=O)=O (some centres not stated) [hydroxyethylene isostere] | 0.42 nM
6 | CC(C)[C@@H]1[C@H](OC(=O)N[C@@H](Cc2ccccc2)[C@H](O)CN2C[C@H]3CCS[C@H]3CC2C(=O)NC(C)(C)C)CCS1(=O)=O (some centres not stated) [hydroxyethylene isostere] | 1.3 nM
7 | CC(C)[C@H]1[C@@H](OC(=O)N[C@@H](Cc2ccccc2)[C@H](O)CN2C[C@H]3CCS[C@H]3CC2C(=O)NC(C)(C)C)CCS1(=O)=O (some centres not stated) [hydroxyethylene isostere] | 2.6 nM

Same assay, conditions: pH 5.5; 22 °C

Row | Compound | IC50
8 | C[C@@H]1OCC[C@@H]1OC(=O)N[C@@H](CSc1ccccc1)[C@H](O)CN1C[C@H]2CCS[C@H]2CC1C(=O)NC(C)(C)C (stereo partly drawn) [(2S,3S)-2-methyloxolan-3-yl N-[(2R,3R)-4-[(3aR,7aS)-6-(tert-butylcarbamoyl)-octahydrothieno[3,2-c]pyridin-5-yl]-3-hydroxy-1-(phenylsulfanyl)butan-2-yl]carbamate] | 0.28 nM
9 | CC(C)(C)NC(=O)C1C[C@@H]2SCC[C@@H]2CN1C[C@@H](O)[C@H](CSc1ccccc1)NC(=O)O[C@@H]1CCS(=O)(=O)C1 (some centres not stated) [hydroxyethylene isostere] | 2 nM
10 | CC(C)(C)NC(=O)C1C[C@@H]2SCC[C@@H]2CN1C[C@@H](O)[C@H](CSc1ccccc1)NC(=O)O[C@H]1CCS(=O)(=O)C1 (some centres not stated) [hydroxyethylene isostere] | 1.7 nM
11 | CC(C)[C@H]1[C@@H](OC(=O)N[C@@H](Cc2ccccc2)[C@H](O)CN2C[C@H]3CCCC[C@H]3CC2C(=O)NC(C)(C)C)CCS1(=O)=O (some centres not stated) [hydroxyethylene isostere] | 8.1 nM
12 | C[C@@H]1[C@@H](OC(=O)N[C@@H](CSc2ccccc2)[C@H](O)CN2C[C@H]3CCS[C@H]3CC2C(=O)NC(C)(C)C)CCS1(=O)=O (some centres not stated) [hydroxyethylene isostere] | 5.2 nM
13 | C[C@@H]1[C@H](OC(=O)N[C@@H](CSc2ccccc2)[C@H](O)CN2C[C@H]3CCS[C@H]3CC2C(=O)NC(C)(C)C)CCS1(=O)=O (some centres not stated) [hydroxyethylene isostere] | 0.75 nM
14 | C[C@@H]1[C@H](OC(=O)N[C@@H](Cc2ccccc2)[C@H](O)CN2C[C@H]3CCCC[C@H]3CC2C(=O)NC(C)(C)C)CCS1(=O)=O (some centres not stated) [hydroxyethylene isostere] | 10 nM
15 | C[C@H]1OCC[C@H]1OC(=O)N[C@@H](CSc1ccccc1)[C@H](O)CN1C[C@H]2CCS[C@H]2CC1C(=O)NC(C)(C)C (some centres not stated) [hydroxyethylene isostere] | 3 nM
16 | C[C@H]1[C@@H](OC(=O)N[C@@H](CSc2ccccc2)[C@H](O)CN2C[C@H]3CCS[C@H]3CC2C(=O)NC(C)(C)C)CCS1(=O)=O (some centres not stated) [hydroxyethylene isostere] | 0.4 nM
17 | C[C@H]1[C@H](OC(=O)N[C@@H](CSc2ccccc2)[C@H](O)CN2C[C@H]3CCS[C@H]3CC2C(=O)NC(C)(C)C)CCS1(=O)=O (some centres not stated) [hydroxyethylene isostere] | 1.4 nM

From BindingDB's records for doi:10.1016/0960-894X(95)00507-P (Eli Lilly, 1995)
